{"source": "patent US9433663B2", "about": "“Mobilization of hematopoietic stem cells” (Children's Hospital Medical Center, priority 2008, dated 2016)", "key": {"[1]": {"system": "donor cell engraftment", "assay": "Example 9 mobilization as preparative regimen for HSC transplantation", "format": "in vivo, mice", "experimental": "If the microenvironmental niches are vacated after CASIN exposure, donor HSCs might engraft better in hosts treated with a mobilizing agent such as CASIN compared with non-mobilized controls. To test this, bone marrow transplantation is performed on recipient mice which are pre-conditioned with CASIN. […] Additionally, AMD3100, G-CSF, and control medium are used in parallel with CASIN as controls.\nBriefly, mice are treated with CASIN, and 4×10^7 donor bone marrow cells from congenic mouse strain are transplanted 48 h later. Donor cell engraftment is assayed at 3 months using the congenic markers by flow cytometry.\nAdditionally, multiple cycles of mobilization with CASIN may increase the number of available niches. Therefore, this study investigates whether repeated cycles of CASIN mobilization, each followed by donor cell transplantation, could result in increased engraftment. Briefly, mice receive one weekly injection of CASIN on 3 consecutive weeks and 4×10^7 donor marrow cells are transplanted 48 hours after each mobilization. Control animals also received 3 weekly infusions of 4×10^7 donor marrow cells but no CASIN. And the donor engraftment is assayed at 3 months after transplantation as well."}, "[2]": {"target": "Cdc42 (Mus musculus, UniProt P60766)", "sequence (P60766 whole entry)": "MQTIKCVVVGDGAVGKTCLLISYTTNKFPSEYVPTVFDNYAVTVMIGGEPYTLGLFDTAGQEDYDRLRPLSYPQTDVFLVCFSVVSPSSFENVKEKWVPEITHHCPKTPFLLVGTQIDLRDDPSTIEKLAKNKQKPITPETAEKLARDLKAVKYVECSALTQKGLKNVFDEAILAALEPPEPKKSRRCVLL", "assay": "Rho GTPase effector pull-down in murine LDBM cells, Cdc42", "format": "cell-based", "set-up": "endogenous in cells; host or cells: murine low density bone marrow (LDBM) cells", "experimental": "To analyze the effects of CASIN on the formation of active GTP-bound Cdc42, RhoA, and Rac1, effector pulldown assays were carried out as described previously. Cdc42GAP^−/− MEF, LDBM, CD34^+ hCB cells were treated with CASIN at doses of 5-20 μM in parallel with vehicle control for 2 hrs after overnight starvation, and stimulated with cytokines subsequently. And then cells were lysed in a buffer containing 20 mM Tris-HCL (pH 7.6), 100 mM NaCl, 1% Triton X-100, 10 mM MgCl2, 2 mM NaF, and Protease inhibitor cocktail (Roche Diagnostics). Lysates were incubated with GST-P21-binding domain of PAK1 for RAC1-GTP and Cdc42-GTP, and GST-RBD domain of Rhotekin for RhoA-GTP respectively. Both bound- and unbound-form of Rho GTPases were probed by immunoblotting with antibodies specific for Rac1 (BD biosciences), Cdc42 (BD biosciences), and RhoA (cell signaling)."}, "[3]": {"target": "Rho (Homo sapiens, UniProt P61586)", "sequence (P61586 whole entry)": "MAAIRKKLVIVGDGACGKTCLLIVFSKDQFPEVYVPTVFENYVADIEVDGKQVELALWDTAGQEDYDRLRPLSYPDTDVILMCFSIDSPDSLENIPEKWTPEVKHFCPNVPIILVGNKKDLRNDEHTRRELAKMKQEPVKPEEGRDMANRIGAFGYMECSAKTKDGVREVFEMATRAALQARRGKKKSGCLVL", "assay": "nucleotide exchange: Large-induced exchange of mant-GDP with Rho", "format": "biochemical", "description": "For example, even at 10 times the IC50 of Cdc42, a 50% inhibition of the association of mant-GDP with Rac or Rho was not achieved."}, "[4]": {"system": "32D myeloid progenitors", "assay": "adhesion of 32D progenitors to fibronectin fragment CH296", "format": "cell-based, murine", "details": "gradient CASIN treatments", "description": "(§1) To shed light on potential roles of CASIN in HSPC mobilization, the effects of CASIN on Cdc42-related cellular functions was studied, including adhesion, migration, and F-actin polymerization of progenitor cells in 32D myeloid progenitors. […] SDF-1α stimulation causes a reorganization of F-actin into a cortical ring around the cells. […] Thirdly, to gain further insight into cellular specificity and efficacy of CASIN, and also to rule out possible toxic effects by CASIN, Cdc42-involved BM progenitor cell functions were examined, including proliferation, adhesion, migration, and F-actin polymerization, in Cdc42^+/+ cells in parallel with Cdc42^−/− cells. In line with additional studies in a Cdc42 conditional knockout mouse model as described herein, Cdc42^−/− LDBM cells have increased CFU-forming progenitors compared to those of Cdc42^+/+."}, "[5]": {"system": "Lin^−c-Kit^+ BM progenitors", "assay": "F-actin immunofluorescence in Lin−c-Kit+ BM progenitors", "format": "cell-based, murine", "details": "double-sorted Lin^−c-Kit^+ BM progenitors; CASIN pre-treatment at 5 or 10 μM", "description": "as §1\nCells then were stimulated with 100 ng/ml SDF-1α for 45 secs, and further stained with Rhodamine/Phalloidin for actin and DAPI for nucleus as described herein."}, "[6]": {"system": "N-RasMA93 cells", "assay": "directional migration of N-RasMA93 leukemia cells towards SDF-1α (transwell)", "format": "cell-based, human", "details": "in vitro", "experimental": "FIG. 5B. Migration of leukemia cells towards SDF-1α without or with CASIN pre-treatment at doses of 5 and 10 μM was determined by transwell assays.\nLike normal HSCs, their malignant counterpart, leukemia initiating cells (LICs) reside in their BM niches that provide the structural and physiological conditions supporting their survival and growth. LICs are resistant to traditional chemotherapy by interacting with their BM microenvironment, which are the culprits of leukemia relapses after a period of remission induced by chemotherapy. Detachment of LICs from their niche by CASIN would be a valuable supplementary therapy to the traditional cancer therapies (e.g., chemotherapies). First of all, in vitro effects of CASIN were examined in adhesion, migration, and F-actin polymerization of LICs, each of which is independently important for the retention of LICs in BM niches. Retroviral transduction of an MLL-AF9 fusion cDNA together with N-Ras oncogene into normal human CD34^+cord blood cells led to the establishment of cultures of N-Ras-MA93 cells that can initiate acute myeloid leukemia in NOG mice. […] To address it, a human AML model was set up by transplanting N-RasMA93 cells into NOG mice intravenously."}, "[7]": {"system": "Lin^− BM cells", "assay": "FACS analysis of F-actin in Lin− BM cells", "format": "cell-based, murine", "details": "column-selected Lin^− BM cells, dose-dependent pattern", "description": "as §1"}, "[8]": {"system": "Fancc−/− mice", "assay": "Example 10 HSC/P mobilization in Fancc−/− mice", "details": "mouse, in vivo", "experimental": "The effects of CASIN on HSC/P mobilization in Fancc−/− mice are investigated under four groups in parallel with WT mice: (1) Control group; (2) G-CSF group: 2.5 μg G-CSF per mouse, twice a day for 4 d120; (3) CASIN group: 2.5 mg/Kg; (4) combination of CASIN and G-CSF: one injection of CASIN is given 40 h before the end of 4 d G-CSF administration.\nFancc−/− or WT mice are mobilized with regimens corresponding to the four experimental groups. Then PB are harvested by cardiac puncture. Phenotypically, the absolute number and percentage of HSC/Ps in PB after mobilization are determined as those of LSK (Lin− Sca+ c-Kit+) cells by flow cytometry. Functionally, CFU-C assay is performed in triplicate for each mouse by using PB of mice from different experimental groups, and CFU-GM, CFU-GEMM, BFU-E, and CFU-E are distinguished by morphology and using cytokine combinations. Furthermore, the long-term repopulation capacity of the mobilized HSCs is evaluated using a competitive repopulating assay and subsequent secondary transplantation as discussed above."}}}
{"molecule": "OCCNC1CCCc2c1[nH]c1ccc(-c3ccccc3)cc21", "note": "(centres unmarked) [CASIN]", "values": [{"measurement": "engraftment with 3-cycle administration and subsequent transplantation", "setting": "[1]; 3 weekly cycles", "value": "further improved compared to one cycle"}, {"measurement": "engraftment of donor cells in pre-conditioned recipients", "setting": "[1]; compared to the non-mobilization control", "value": "significantly increased engraftment of donor cells"}, {"measurement": "Cdc42 activity", "setting": "[2]; pre-treatment at 5 and 10 μM, mixed cytokine stimulation", "value": "dose-dependent inhibition"}, {"measurement": "reversibility of Cdc42 activity inhibition", "setting": "[2]; removal of CASIN by a pre-wash", "value": "reversible"}, {"measurement": "Large induced nucleotide exchange of mant-GDP with Rho", "setting": "[3]; FIG. 6", "value": "did not affect"}, {"measurement": "inhibition of the association of mant-GDP with Rho", "setting": "[3]; at 10 times the IC50 of Cdc42", "value": "< 50", "unit": "%"}, {"measurement": "percentages of adherent 32D cells to CH296", "setting": "[4]", "value": "significantly reduced dose-dependently"}, {"measurement": "SDF-1α mediated reorganization of F-actin into cortical actin ring", "setting": "[5]", "value": "lost their capacities to reorganize F-actin into the cortical actin ring"}, {"measurement": "directional migration capacity of N-RasMA93 cells", "setting": "[6]", "value": "significantly impaired"}, {"measurement": "F-actin reorganization in response to SDF-1α", "setting": "[7]", "value": "impaired"}, {"measurement": "mobilization of HSC/Ps (LSK cells, progenitor colonies) in Fancc−/− mice", "setting": "[8]", "value": "effective mobilizer"}]}
